Values of other authors as cited in patent publication EP3338772A1, “[…] COMPOSITIONS STABILIZED BY HYDROXYCARBOXYLIC ACIDS , THE PRODUCTION THEREOF AND HIGHLY CONCENTRATED MAGNESIUM COMPOSITIONS” (Merz Pharma GmbH & Co. KGaA, priority 2016, dated 2018).
Like-named read-outs stand apart in the source and are kept apart here. One block for each substance: values may come before it.

Assays:
[1] = water

Substance: Calcium-Magnesium-Lactat-Citrat-Komplex
- Löslichkeit in Wasser, Calcium [1]: 900 mg/L
- Löslichkeit in Wasser, Magnesium [1]: 300 mg/L

- Löslichkeit (25 °C): 18,14 g(Mg^2+)kg^-1H2O
Substance: Trimagnesiumdicitrat*Nonahydrat (C12H10O14Mg3*9H2O)

- Löslichkeit (22 °C): 19,40 g(Mg^2+)kg^-1H2O
- maximale Magnesium-Konzentration (Raumtemperatur, without hydroxycarboxylic acid): 19,40 g(Mg^2+) kg^-1 (Wasser)
Substance: Trimagnesiumdicitrat*Tetradecanhydrat (C12H10O14Mg3*14H2O)
